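Compound exposure: 48 hours, 5 concentrations, 96-well plates. GI50 marks 50% less growth.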 Active and inactive are the calls of the source. No stated cut-off is given here; in the data, active = GI50 up to about 1.1 µM and inactive = higher.
What was measured:
Assay in all cases: DTP human tumour cell line panel, 48 h
ACHN = tested on: ACHN
Malme-3M = tested on: Malme-3M
HOP-62 = tested on: HOP-62
HOP-92 = tested on: HOP-92
A549 = tested on: A549
MDA-N = tested on: MDA-N
786-0 = tested on: 786-0
SF-295 = tested on: SF-295
HCT-116 = tested on: HCT-116
NCI-H460 = tested on: NCI-H460
DU-145 = tested on: DU-145
SF-539 = tested on: SF-539
SNB-75 = tested on: SNB-75
SNB-19 = tested on: SNB-19
RPMI-8226 = tested on: RPMI-8226
KM12 = tested on: KM12
SK-MEL-28 = tested on: SK-MEL-28
HT-29 = tested on: HT-29
T47D = tested on: T47D
BT-549 = tested on: BT-549

Row | SMILES | GI50 (ACHN) | GI50 (Malme-3M) | GI50 (HOP-62) | GI50 (HOP-92) | GI50 (A549) | GI50 (MDA-N) | GI50 (786-0) | GI50 (SF-295) | GI50 (HCT-116) | GI50 (NCI-H460) | GI50 (DU-145) | GI50 (SF-539) | GI50 (SNB-75) | GI50 (SNB-19) | GI50 (RPMI-8226) | GI50 (KM12) | GI50 (SK-MEL-28) | GI50 (HT-29) | GI50 (T47D) | GI50 (BT-549)
1 | COC(=O)c1c(O)ccc2c1c1cc3ccccc3cc1n2Cc1cc(OC)cc(OC)c1 | 1.74 µM (inactive) | 1.22 µM (inactive) | 3.23 µM (inactive) | 11.7 µM (inactive) | 3.37 µM (inactive) | 0.43 µM (active) | 3.55 µM (inactive) | 1.11 µM (active) | 1.13 µM (inactive) | 2.57 µM (inactive) | 2.53 µM (inactive) | 1.86 µM (inactive) | 2.51 µM (inactive) | 5.82 µM (inactive) | 1.96 µM (inactive) | 0.805 µM (active) | 1.66 µM (inactive) | 11 µM (inactive) | 3.06 µM (inactive) | 
2 | CCOC(=O)C(=CNC(=S)N/N=C1\C(=O)Nc2ccccc21)C(=O)OCC | > 100 µM (inactive) |  | > 100 µM (inactive) | 82 µM (inactive) | > 100 µM (inactive) | > 100 µM (inactive) | > 100 µM (inactive) | > 100 µM (inactive) | > 100 µM (inactive) | 47.8 µM (inactive) | > 100 µM (inactive) | > 100 µM (inactive) | 21.5 µM (inactive) | > 100 µM (inactive) | > 100 µM (inactive) | 52 µM (inactive) | > 100 µM (inactive) | 84.3 µM (inactive) | > 100 µM (inactive) | 
3 | Sc1nnc(CCCCCCCCc2nnc(S)o2)o1 | > 100 µM (inactive) |  | > 100 µM (inactive) |  | > 100 µM (inactive) | > 100 µM (inactive) | > 100 µM (inactive) | > 100 µM (inactive) | > 100 µM (inactive) | > 100 µM (inactive) | > 100 µM (inactive) | > 100 µM (inactive) | > 100 µM (inactive) | > 100 µM (inactive) |  | > 100 µM (inactive) | > 100 µM (inactive) | > 100 µM (inactive) |  | > 100 µM (inactive)
4 | O=C(O)C1=NN(c2ccc(S(=O)(=O)O)cc2)C2(C1)SCC(=O)N2c1nc2ccccc2s1 (configuration not stated) | > 100 µM (inactive) | > 100 µM (inactive) | > 100 µM (inactive) | > 100 µM (inactive) | > 100 µM (inactive) |  | > 100 µM (inactive) | > 100 µM (inactive) | > 100 µM (inactive) | > 100 µM (inactive) | > 100 µM (inactive) | > 100 µM (inactive) | > 100 µM (inactive) | > 100 µM (inactive) | > 100 µM (inactive) | > 100 µM (inactive) | > 100 µM (inactive) | > 100 µM (inactive) | > 100 µM (inactive) | > 100 µM (inactive)
5 | CCOC(=O)C(O)(NC(=O)Nc1ccc(F)cc1)C(F)(F)F (configuration not stated) | > 100 µM (inactive) |  |  |  | > 100 µM (inactive) | > 100 µM (inactive) | > 100 µM (inactive) |  | > 100 µM (inactive) |  |  | > 100 µM (inactive) | > 100 µM (inactive) | > 100 µM (inactive) | > 100 µM (inactive) |  | > 100 µM (inactive) | > 100 µM (inactive) | > 100 µM (inactive) | > 100 µM (inactive)
6 | O=[N+]([O-])C(/C=C(\Cl)n1nnc2ccccc21)=C(/Cl)n1nnc2ccccc21 | > 100 µM (inactive) | > 100 µM (inactive) | > 100 µM (inactive) | > 100 µM (inactive) | > 100 µM (inactive) | > 100 µM (inactive) | > 100 µM (inactive) | > 100 µM (inactive) | > 100 µM (inactive) | > 100 µM (inactive) | > 100 µM (inactive) | > 100 µM (inactive) |  | > 100 µM (inactive) | > 100 µM (inactive) | > 100 µM (inactive) | > 100 µM (inactive) | > 100 µM (inactive) | > 100 µM (inactive) | 
7 | O=c1cn[nH]c(=S)n1/N=C/c1c[nH]c2ccccc12 | > 100 µM (inactive) | > 100 µM (inactive) | 49.3 µM (inactive) |  | > 100 µM (inactive) | 87.1 µM (inactive) | > 100 µM (inactive) | > 100 µM (inactive) | > 100 µM (inactive) | > 100 µM (inactive) | > 100 µM (inactive) | > 100 µM (inactive) |  | > 100 µM (inactive) | 49.5 µM (inactive) | > 100 µM (inactive) | > 100 µM (inactive) | > 100 µM (inactive) |  | 72.6 µM (inactive)
8 | COc1cc(Cn2c3c(c4cc(O)ccc42)Cc2ccccc2C3=O)cc(OC)c1 |  | 42.1 µM (inactive) | 60.7 µM (inactive) |  | 74 µM (inactive) | 12 µM (inactive) | 58.3 µM (inactive) | 25.8 µM (inactive) | 34.4 µM (inactive) | 62.1 µM (inactive) | 58.1 µM (inactive) | 37.3 µM (inactive) | 15.5 µM (inactive) | > 100 µM (inactive) | 5.62 µM (inactive) | 39.2 µM (inactive) | 31.8 µM (inactive) | 37.1 µM (inactive) |  | > 100 µM (inactive)

Reference: ChEMBL document CHEMBL1201862, “PubChem BioAssay data set” (2004)
